Source: patent US8998396B2, “Treatment liquid for liquid jetting device, and cartridge containing the same” (Ricoh Company, Ltd., priority 2009, dated 2015)

Test: Surfactant solubility in the main solvent, judged visually
Assay type: physicochemical
Conditions: main solvent: water, glycerin and 1,3-butylene glycol
Description: The surfactant was solved into the main solvent and the solubility thereof was judged visually.
A: Solved completely (transparent and colorless)

Solubility in the main solvent (in words) | Compound
solves in the main solvent | CCCCCCCCN1CCCC1=O [LP-100, N-Octyl-2-Pyrrolidone]
cannot solve in the main solvent | CCCCCCCCCCCCN1CCCC1=O [LP-300, N-Dodecyl-2-Pyrrolidone]
